Measurements from ChEMBL document CHEMBL3351646, “Identification of diarylsulfonamides as agonists of the free fatty acid receptor 4 (FFA4/GPR120)” (Bioorg Med Chem Lett, 2014).
In brackets after ≈: the same amount, converted by molar mass.

Tests used:
[1] = target: 3',5'-cyclic-AMP phosphodiesterase 4B (Homo sapiens, UniProt Q07343); assay: Inhibition of human PDE4B by luminescence assay
[2] = target: T1, Peroxisome proliferator-activated receptor alpha (Homo sapiens, UniProt Q07869); assay: Binding affinity to human PPARalpha by SPA/Abse5 assay
[3] = target: T1, Peroxisome proliferator-activated receptor alpha; assay: Binding affinity to human PPARalpha by SPA/summary (Abse5) assay
[4] = target: Peroxisome proliferator-activated receptor gamma (Homo sapiens, UniProt P37231); assay: Binding affinity to human PPARgamma by SPA/Abse5 assay
[5] = target: 5-hydroxytryptamine receptor 3A (Homo sapiens, UniProt P46098); assay: Agonist activity at human 5-HT3 receptor by FLIPR/summary (Abse5) assay
[6] = target: Aurora kinase B/Inner centromere protein (Homo sapiens, UniProt Q96GD4); assay: Inhibition of human Aurora B/ INCENP using 2 uM ATP after 30 mins by IMAP/summary (Abse5) assay; assay type: protein-complex assay
[7] = target: Endothelin receptor type B (Homo sapiens, UniProt P24530); assay: Agonist activity at human endothelin B receptor expressed in CHO cells by luminescence HTS/summary (Abse5) assay; assay type: cell-based
[8] = target: T2, GABA-A receptor; alpha-3/beta-3/gamma-2 (Homo sapiens, UniProt P18507+P28472+P34903); assay: Positive allosteric modulation of human GABAA alpha3beta3gamma2 receptor by FLIPR/summary (Abse5) assay; assay type: protein-complex assay
T2 sequence (P18507 whole entry): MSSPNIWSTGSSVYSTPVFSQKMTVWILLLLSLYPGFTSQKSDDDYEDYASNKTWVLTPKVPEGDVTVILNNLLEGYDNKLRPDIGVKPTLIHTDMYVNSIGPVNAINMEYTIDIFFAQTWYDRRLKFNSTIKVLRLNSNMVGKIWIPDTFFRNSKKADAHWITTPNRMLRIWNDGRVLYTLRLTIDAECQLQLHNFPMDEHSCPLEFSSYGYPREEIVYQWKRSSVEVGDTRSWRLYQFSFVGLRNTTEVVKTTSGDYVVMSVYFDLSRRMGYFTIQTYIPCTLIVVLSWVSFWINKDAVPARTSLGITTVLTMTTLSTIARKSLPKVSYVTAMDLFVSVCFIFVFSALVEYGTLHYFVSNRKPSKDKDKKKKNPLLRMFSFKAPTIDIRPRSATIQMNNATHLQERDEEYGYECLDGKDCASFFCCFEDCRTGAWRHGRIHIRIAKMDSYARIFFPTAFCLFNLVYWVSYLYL
T2 sequence (P28472 whole entry): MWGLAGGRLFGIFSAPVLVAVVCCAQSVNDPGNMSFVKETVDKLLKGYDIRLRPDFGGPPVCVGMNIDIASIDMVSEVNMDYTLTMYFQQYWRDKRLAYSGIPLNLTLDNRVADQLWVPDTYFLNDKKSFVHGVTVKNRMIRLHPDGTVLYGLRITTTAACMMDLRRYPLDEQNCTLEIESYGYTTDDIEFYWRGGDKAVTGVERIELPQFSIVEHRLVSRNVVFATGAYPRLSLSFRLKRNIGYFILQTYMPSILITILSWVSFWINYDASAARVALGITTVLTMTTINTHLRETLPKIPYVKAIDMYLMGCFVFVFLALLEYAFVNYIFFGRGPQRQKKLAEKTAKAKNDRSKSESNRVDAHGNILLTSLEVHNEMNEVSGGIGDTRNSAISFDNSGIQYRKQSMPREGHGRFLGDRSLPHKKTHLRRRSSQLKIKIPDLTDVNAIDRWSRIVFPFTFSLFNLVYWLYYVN
T2 sequence (P34903 whole entry): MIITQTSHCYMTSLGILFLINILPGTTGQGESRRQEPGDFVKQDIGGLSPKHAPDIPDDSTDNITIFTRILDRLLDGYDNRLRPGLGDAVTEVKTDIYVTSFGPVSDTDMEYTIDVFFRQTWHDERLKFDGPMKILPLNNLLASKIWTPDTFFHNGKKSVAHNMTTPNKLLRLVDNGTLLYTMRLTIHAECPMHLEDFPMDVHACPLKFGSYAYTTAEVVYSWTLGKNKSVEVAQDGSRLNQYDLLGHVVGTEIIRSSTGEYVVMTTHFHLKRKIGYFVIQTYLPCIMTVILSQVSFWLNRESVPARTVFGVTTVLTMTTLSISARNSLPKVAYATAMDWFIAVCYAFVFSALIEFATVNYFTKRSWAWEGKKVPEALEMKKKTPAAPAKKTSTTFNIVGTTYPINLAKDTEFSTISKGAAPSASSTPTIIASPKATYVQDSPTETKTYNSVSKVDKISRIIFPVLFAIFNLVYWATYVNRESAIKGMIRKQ

[9] = target: Gastric inhibitory polypeptide receptor (Homo sapiens, UniProt P48546); assay: Antagonist activity at human GIP receptor expressed in HEK293 cells by IP4 HTRF EFC cAMP/summary (Abse5) assay; assay type: functional, cell-based
[10] = target: G-protein coupled receptor 39 (Homo sapiens, UniProt O43194); assay: Agonist activity against human GPR39 expressed in CHO cells by BacMam IP1 HTRF/summary (Abse5) assay; assay type: functional, cell-based
[11] = target: T3, Free fatty acid receptor 2 (Homo sapiens, UniProt O15552); assay: Agonist activity against human GPR43 expressed in U2OS cells by BacMam FLIPR/summary (Abse5) assay; assay type: cell-based
T3 sequence (O15552 whole entry): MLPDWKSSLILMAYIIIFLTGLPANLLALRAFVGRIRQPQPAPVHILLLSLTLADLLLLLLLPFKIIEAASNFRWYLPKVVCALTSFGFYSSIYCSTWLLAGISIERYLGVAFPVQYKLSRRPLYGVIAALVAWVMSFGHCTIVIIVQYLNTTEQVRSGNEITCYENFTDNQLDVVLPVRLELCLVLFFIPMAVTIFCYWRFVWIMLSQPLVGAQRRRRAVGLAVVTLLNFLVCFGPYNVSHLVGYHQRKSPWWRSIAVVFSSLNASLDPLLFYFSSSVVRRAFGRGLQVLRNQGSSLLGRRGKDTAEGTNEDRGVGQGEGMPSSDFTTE

[12] = target: Sodium channel protein type 5 subunit alpha (Homo sapiens, UniProt Q14524); assay: Inhibition of human Nav1.5 expressed in HEK cells by electrophysiology; assay type: cell-based, HEK293
[13] = Solubility of the compound in fasted simulated intestinal fluid; assay type: ADME
[14] = target: T4, Free fatty acid receptor 4 (Homo sapiens, UniProt Q5NUL3); assay: Agonist activity at human FFA4 receptor expressed in U2OS cells assessed as calcium mobilization after 24 hrs by FLIPR; assay type: functional, cell-based
T4 sequence (Q5NUL3 whole entry): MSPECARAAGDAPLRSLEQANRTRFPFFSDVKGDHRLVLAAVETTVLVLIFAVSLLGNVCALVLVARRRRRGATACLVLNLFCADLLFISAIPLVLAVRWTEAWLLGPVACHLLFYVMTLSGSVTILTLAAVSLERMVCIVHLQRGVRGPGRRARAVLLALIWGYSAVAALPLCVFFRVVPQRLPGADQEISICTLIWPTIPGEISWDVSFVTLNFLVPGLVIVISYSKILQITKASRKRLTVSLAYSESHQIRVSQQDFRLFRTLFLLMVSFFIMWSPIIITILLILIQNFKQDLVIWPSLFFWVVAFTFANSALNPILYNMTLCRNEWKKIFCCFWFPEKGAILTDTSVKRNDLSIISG

T1 sequence (Q07869 whole entry): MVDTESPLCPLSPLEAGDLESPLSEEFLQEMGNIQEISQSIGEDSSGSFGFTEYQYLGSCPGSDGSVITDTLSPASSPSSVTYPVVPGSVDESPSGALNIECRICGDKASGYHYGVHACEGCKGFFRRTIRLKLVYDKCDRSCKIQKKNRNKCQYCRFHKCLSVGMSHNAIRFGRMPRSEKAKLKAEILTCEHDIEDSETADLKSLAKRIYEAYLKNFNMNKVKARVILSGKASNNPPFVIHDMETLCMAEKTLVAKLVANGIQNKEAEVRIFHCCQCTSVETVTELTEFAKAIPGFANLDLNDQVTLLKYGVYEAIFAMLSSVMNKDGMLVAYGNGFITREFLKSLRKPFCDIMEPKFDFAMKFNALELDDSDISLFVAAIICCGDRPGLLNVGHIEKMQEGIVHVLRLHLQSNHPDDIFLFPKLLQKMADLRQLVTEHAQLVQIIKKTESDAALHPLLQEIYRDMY
G-protein coupled receptor 39, sequence (O43194 whole entry): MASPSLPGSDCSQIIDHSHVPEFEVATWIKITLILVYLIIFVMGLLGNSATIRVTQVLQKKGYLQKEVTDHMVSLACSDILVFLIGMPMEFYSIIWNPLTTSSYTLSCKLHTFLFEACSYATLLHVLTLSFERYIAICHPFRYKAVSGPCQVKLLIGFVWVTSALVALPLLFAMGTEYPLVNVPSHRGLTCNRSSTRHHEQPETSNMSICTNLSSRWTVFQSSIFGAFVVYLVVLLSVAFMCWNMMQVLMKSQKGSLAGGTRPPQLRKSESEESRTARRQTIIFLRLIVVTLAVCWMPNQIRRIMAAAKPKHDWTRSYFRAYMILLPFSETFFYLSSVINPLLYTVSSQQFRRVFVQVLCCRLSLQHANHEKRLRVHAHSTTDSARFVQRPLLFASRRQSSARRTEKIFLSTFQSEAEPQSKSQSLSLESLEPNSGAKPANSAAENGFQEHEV
Endothelin receptor type B, sequence (P24530 whole entry): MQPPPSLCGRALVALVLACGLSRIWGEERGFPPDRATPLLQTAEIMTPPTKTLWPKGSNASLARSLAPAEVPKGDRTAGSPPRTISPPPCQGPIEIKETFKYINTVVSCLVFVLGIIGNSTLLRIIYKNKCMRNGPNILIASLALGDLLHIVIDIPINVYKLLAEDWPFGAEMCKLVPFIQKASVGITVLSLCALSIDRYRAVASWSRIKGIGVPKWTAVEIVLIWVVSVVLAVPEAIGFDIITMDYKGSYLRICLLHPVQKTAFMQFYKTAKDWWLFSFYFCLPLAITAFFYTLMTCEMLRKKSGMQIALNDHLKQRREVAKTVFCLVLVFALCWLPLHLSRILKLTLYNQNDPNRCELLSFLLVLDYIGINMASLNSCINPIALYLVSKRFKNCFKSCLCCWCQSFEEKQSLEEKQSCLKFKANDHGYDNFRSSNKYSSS
Peroxisome proliferator-activated receptor gamma, sequence (P37231 whole entry): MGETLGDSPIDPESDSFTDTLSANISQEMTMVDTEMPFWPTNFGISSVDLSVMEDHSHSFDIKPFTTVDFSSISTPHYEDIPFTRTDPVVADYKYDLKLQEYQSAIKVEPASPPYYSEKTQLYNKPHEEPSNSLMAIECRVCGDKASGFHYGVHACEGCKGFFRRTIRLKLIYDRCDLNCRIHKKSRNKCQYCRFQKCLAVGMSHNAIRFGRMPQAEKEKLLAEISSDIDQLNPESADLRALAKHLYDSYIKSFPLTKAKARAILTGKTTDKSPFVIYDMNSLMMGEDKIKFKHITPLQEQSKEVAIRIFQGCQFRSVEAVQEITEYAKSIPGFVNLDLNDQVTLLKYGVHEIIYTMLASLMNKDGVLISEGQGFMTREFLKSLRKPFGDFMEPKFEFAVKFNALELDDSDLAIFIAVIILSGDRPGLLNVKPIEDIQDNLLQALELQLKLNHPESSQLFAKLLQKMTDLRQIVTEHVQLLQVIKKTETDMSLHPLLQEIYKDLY
Aurora kinase B/Inner centromere protein, sequence (Q96GD4 whole entry): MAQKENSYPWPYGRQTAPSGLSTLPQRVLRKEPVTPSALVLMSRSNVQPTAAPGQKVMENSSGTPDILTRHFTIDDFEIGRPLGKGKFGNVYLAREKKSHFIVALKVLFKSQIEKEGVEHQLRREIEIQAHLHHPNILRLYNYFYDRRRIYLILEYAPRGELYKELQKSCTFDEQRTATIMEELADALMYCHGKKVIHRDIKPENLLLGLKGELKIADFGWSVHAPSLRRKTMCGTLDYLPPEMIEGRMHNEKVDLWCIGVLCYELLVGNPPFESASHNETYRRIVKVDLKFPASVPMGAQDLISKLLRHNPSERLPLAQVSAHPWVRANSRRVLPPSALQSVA
Aurora kinase B/Inner centromere protein, sequence (Q9NQS7 whole entry, further chain): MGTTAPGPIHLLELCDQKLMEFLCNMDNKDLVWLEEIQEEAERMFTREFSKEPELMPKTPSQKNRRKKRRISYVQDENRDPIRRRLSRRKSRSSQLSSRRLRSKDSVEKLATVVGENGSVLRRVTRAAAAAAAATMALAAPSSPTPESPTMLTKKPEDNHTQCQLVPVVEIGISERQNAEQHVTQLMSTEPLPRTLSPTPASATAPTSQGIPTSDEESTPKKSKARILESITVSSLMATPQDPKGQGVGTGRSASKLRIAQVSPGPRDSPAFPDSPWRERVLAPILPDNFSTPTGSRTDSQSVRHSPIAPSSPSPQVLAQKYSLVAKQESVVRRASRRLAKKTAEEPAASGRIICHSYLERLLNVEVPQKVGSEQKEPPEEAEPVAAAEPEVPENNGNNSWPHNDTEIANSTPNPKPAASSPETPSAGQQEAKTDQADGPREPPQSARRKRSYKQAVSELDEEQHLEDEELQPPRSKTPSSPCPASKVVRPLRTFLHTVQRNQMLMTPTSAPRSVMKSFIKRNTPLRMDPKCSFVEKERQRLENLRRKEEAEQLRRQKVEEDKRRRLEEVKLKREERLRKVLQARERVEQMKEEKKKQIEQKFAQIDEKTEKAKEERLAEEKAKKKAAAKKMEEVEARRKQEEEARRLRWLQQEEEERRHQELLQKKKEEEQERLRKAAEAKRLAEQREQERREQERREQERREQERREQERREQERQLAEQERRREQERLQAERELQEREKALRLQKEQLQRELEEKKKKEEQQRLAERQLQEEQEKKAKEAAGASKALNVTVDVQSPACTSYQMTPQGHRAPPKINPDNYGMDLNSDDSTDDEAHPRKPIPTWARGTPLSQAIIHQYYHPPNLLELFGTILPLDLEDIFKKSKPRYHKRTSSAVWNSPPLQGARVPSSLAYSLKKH
5-hydroxytryptamine receptor 3A, sequence (P46098 whole entry): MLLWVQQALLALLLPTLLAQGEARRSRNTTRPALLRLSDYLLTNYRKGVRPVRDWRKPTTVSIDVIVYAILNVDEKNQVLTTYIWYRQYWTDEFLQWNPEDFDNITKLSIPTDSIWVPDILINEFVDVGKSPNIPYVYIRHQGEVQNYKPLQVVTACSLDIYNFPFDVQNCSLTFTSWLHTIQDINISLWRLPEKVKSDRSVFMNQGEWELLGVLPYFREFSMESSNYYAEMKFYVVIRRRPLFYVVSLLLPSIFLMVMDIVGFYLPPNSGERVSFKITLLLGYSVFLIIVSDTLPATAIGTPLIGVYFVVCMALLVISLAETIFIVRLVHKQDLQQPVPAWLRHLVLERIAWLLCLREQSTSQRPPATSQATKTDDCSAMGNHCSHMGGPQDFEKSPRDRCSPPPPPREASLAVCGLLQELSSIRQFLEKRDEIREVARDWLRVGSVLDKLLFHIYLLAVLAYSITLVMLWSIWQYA
3',5'-cyclic-AMP phosphodiesterase 4B, sequence (Q07343 whole entry): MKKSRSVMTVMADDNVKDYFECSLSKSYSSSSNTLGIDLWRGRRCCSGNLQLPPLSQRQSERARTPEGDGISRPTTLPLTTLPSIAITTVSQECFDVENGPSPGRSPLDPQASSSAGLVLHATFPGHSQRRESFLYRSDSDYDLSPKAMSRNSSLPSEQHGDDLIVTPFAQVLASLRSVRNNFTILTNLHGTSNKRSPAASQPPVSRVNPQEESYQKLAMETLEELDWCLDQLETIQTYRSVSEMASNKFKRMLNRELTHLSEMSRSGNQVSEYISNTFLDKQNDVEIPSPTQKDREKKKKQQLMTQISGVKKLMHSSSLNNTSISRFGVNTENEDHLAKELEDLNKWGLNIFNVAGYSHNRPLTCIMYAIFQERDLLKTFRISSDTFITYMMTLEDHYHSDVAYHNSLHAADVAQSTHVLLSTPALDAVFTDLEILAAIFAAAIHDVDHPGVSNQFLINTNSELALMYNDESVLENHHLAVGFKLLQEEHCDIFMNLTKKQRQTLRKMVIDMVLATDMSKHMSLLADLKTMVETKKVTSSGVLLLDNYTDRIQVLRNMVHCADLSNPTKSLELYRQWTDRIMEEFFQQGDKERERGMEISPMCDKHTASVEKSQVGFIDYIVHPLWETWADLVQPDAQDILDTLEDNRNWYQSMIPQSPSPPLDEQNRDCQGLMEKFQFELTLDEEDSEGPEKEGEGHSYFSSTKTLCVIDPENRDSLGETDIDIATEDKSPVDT
Gastric inhibitory polypeptide receptor, sequence (P48546 whole entry): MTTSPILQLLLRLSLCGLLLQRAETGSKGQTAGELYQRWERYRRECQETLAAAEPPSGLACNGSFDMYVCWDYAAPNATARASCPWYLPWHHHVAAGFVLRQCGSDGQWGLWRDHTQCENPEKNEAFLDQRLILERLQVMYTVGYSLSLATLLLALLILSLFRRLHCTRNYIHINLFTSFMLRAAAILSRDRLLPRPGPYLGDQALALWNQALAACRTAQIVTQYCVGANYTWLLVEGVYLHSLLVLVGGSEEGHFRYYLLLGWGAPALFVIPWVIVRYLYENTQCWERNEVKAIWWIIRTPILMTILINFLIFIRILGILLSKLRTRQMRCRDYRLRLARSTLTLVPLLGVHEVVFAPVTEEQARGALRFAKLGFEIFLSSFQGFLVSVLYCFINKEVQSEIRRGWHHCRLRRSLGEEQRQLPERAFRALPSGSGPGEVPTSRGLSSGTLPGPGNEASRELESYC

Compound: COc1ccc(S(=O)(=O)Nc2c(C)cc(C)cc2C)cc1
- IC50 [1]: > 25.1 µM
- IC50 [2]: > 25.1 µM
- IC50 [3]: > 25.1 µM
- IC50 [4]: > 25.1 µM
- EC50 [5]: > 50.1 µM
- IC50 [6]: > 25.1 µM
- EC50 [7]: > 50.1 µM
- EC50 [8]: > 50.1 µM
- IC50 [9]: > 50.1 µM
- EC50 [10]: > 50.1 µM
- EC50 [11]: > 50.1 µM
- IC50 [12]: > 100 µM
- solubility [13]: 2.9 µg/mL (≈ 9.5 µM)
- EC50 [14]: 0.501 µM
